Reference: ChEMBL document CHEMBL2021890, “A new class of prolylcarboxypeptidase inhibitors, part 1: discovery and evaluation” (Bioorg Med Chem Lett, 2012)

What was measured:
[1] = target: T1, Lysosomal Pro-X carboxypeptidase (Mus musculus, UniProt Q7TMR0); assay: Inhibition of mouse PrCP
T1 sequence (Q7TMR0 whole entry): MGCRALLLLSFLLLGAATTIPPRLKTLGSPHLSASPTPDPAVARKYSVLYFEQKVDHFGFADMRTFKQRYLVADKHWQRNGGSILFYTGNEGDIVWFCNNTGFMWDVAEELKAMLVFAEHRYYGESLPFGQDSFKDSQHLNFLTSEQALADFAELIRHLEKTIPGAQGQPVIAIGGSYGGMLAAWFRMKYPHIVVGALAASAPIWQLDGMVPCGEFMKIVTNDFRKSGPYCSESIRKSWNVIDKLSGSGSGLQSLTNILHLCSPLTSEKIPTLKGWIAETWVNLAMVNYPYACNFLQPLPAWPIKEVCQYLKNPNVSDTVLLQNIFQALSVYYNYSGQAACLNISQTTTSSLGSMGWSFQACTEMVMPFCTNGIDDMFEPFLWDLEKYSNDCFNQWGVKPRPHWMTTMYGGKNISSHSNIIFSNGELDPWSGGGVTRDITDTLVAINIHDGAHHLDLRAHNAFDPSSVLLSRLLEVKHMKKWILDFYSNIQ

[2] = Plasma protein binding in 10% human plasma assessed as percentage unbound; format: ADME, cell-free
[3] = Plasma protein binding in 10% mouse plasma assessed as percentage unbound; format: ADME, cell-free
[4] = Metabolic stability in human liver microsomes after 30 mins by LC/MS analysis; format: ADME, Microsome; conditions: read-out: Stability
[5] = Metabolic stability in mouse liver microsomes after 30 mins by LC/MS analysis; format: ADME, Microsome; conditions: read-out: Stability
[6] = Clearance in mouse at 0.5 mg/kg, iv and 1 mg/kg, po; format: ADME, organism-based; conditions: in vivo
[7] = Volume of distribution in mouse at 0.5 mg/kg, iv and 1 mg/kg, po; format: ADME, organism-based; conditions: in vivo
[8] = Half life in mouse at 0.5 mg/kg, iv and 1 mg/kg, po; format: ADME, organism-based; conditions: in vivo
Mus musculus [9] = assay: Dose normalized AUC in mouse at 1 mg/kg, po; format: ADME, organism-based; parameters: dose 1 mg/kg, route oral; conditions: in vivo
[10] = Oral bioavailability in mouse at 1 mg/kg; format: ADME, organism-based; conditions: in vivo
Mus musculus [11] = assay: Ex-vivo inhibition of po dosed mouse PrCP in the absence of plasma by FRET analysis; format: functional, organism-based
Mus musculus [12] = assay: Ex-vivo inhibition of PrCP in heat inactivated 25% plasma of po dosed mouse by FRET analysis; format: functional, organism-based
Mus musculus [13] = assay: Ex-vivo inhibition of PrCP in heat inactivated 100% plasma of po dosed mouse by FRET analysis; format: functional, organism-based

Compound | IC50 [1] | fraction unbound [2] | fraction unbound [3] | remaining at 0.5 h [4] | remaining at 0.5 h [5] | clearance [6] | Vd [7] | half-life [8] | AUC/dose (Mus musculus [9]) | bioavailability [10] | Ki (Mus musculus [11]) | Ki (Mus musculus [12]) | Ki (Mus musculus [13])
Cc1nc(C2CCN(C(=O)[C@@H]3CN(C(C)(C)C)C[C@H]3c3ccc(F)cc3F)CC2)n(-c2ccc(F)c(F)c2)n1 | 34 nM | 0.7 | 0.54 | 57% | 47% | – | – | – | – | – | – | – | –
Cc1cc(C2CCN(C(=O)[C@@H]3CN(C(C)(C)C)C[C@H]3c3ccc(F)cc3F)CC2)n(-c2ccc(Cl)c(C)c2)n1 | 2.9 nM | 0.04 | 0.06 | 1% | 18% | 80 mL/min/kg | 20 L/kg | 3.1 h | 0.1 µM·kg·h/mg | 28% | – | – | –
Cc1cc(C2CCN(C(=O)[C@@H]3CN(C(C)(C)C)C[C@H]3c3ccc(F)cc3F)CC2)n(-c2ccc(Cl)cc2C)n1 | 2.3 nM | – | – | – | – | 65 mL/min/kg | 17 L/kg | 3.1 h | 0.17 µM·kg·h/mg | 37% | – | – | –
Cc1cc(C2CCN(C(=O)[C@@H]3CN(C(C)(C)C)C[C@H]3c3ccc(F)cc3F)CC2)n(-c2ccc(C)c(Cl)c2)n1 | 1.1 nM | 0.05 | 0.04 | < 1% | 1% | 165 mL/min/kg | 24 L/kg | 2.1 h | 0.01 µM·kg·h/mg | 5.5% | – | – | –
Cc1cc(C2CCN(C(=O)[C@@H]3CN(C(C)(C)C)C[C@H]3c3ccc(F)cc3F)CC2)n(-c2cccc(Cl)c2)n1 | 13 nM | – | – | – | – | – | – | – | – | – | – | – | –
Cc1cc(C2CCN(C(=O)[C@@H]3CN(C(C)(C)C)C[C@H]3c3ccc(F)cc3F)CC2)n(-c2ccc(Cl)cc2)n1 | 3.5 nM | 0.11 | 0.17 | 28% | 37% | 41 mL/min/kg | 14 L/kg | 3.9 h | 0.24 µM·kg·h/mg | 29% | – | – | –
CC(C)(C)N1C[C@@H](C(=O)N2CCC(c3nnnn3-c3ccc(Cl)cc3)CC2)[C@H](c2ccc(F)cc2F)C1 | 44 nM | 0.32 | 0.42 | 5% | 10% | 163 mL/min/kg | 17 L/kg | 1.8 h | 0.01 µM·kg·h/mg | 6.4% | – | – | –
Cc1cc(C2CCN(C(=O)[C@@H]3CN(C(C)(C)C)C[C@H]3c3ccc(F)cc3F)CC2)n(-c2ccc(Cl)c(Cl)c2)n1 | 1 nM | 0.02 | 0.019 | 45% | 18% | 43 mL/min/kg | 11 L/kg | 2.7 h | 0.26 µM·kg·h/mg | 38% | 1.7 nM | 5.9 nM | 18.4 nM
Cc1cc(C2CCN(C(=O)[C@@H]3CN(C(C)(C)C)C[C@H]3c3ccc(F)cc3F)CC2)n(-c2ccc(Cl)cc2Cl)n1 | 1 nM | 0.1 | 0.16 | 31% | 39% | 57 mL/min/kg | 16 L/kg | 3.1 h | 0.31 µM·kg·h/mg | 61% | 1.1 nM | 2.3 nM | 6 nM
Cc1cc(C2CCN(C(=O)[C@@H]3CN(C(C)(C)C)C[C@H]3c3ccc(F)cc3F)CC2)n(-c2ccc(F)cc2)n1 | 30 nM | – | – | – | – | – | – | – | – | – | – | – | –
Cc1cc(C2CCN(C(=O)[C@@H]3CN(C(C)(C)C)C[C@H]3c3ccc(F)cc3F)CC2)n(-c2ccc(F)cc2F)n1 | 12 nM | – | – | – | – | 63 mL/min/kg | 14 L/kg | 2.5 h | 0.26 µM·kg·h/mg | 54% | 5.2 nM | 7.5 nM | 14.5 nM
Cc1cc(C2CCN(C(=O)[C@@H]3CN(C(C)(C)C)C[C@H]3c3ccc(F)cc3F)CC2)n(-c2ccc(Cl)cc2F)n1 | 2 nM | 0.17 | 0.21 | – | – | 51 mL/min/kg | 16 L/kg | 3.6 h | 0.25 µM·kg·h/mg | 43% | 1.5 nM | 2.5 nM | 5.5 nM
Cc1cc(C2CCN(C(=O)[C@@H]3CN(C(C)(C)C)C[C@H]3c3ccc(F)cc3F)CC2)n(-c2ccc(Cl)c(F)c2)n1 | 4.8 nM | – | – | – | – | – | – | – | – | – | 3.6 nM | 8.9 nM | 25.1 nM
Cc1cc(C2CCN(C(=O)[C@@H]3CN(C(C)(C)C)C[C@H]3c3ccc(F)cc3F)CC2)n(-c2ccc(F)c(Cl)c2)n1 | 0.8 nM | 0.16 | 0.16 | 38% | 43% | 68 mL/min/kg | 19 L/kg | 3.1 h | 0.26 µM·kg·h/mg | 59% | 0.9 nM | 1.3 nM | 2.5 nM
Cc1cc(C2CCN(C(=O)[C@@H]3CN(C(C)(C)C)C[C@H]3c3ccc(F)cc3F)CC2)n(-c2cc(Cl)ccc2F)n1 | 1.4 nM | 0.14 | 0.09 | 34% | 37% | – | – | – | – | – | 1.2 nM | 1.6 nM | 2.8 nM
Cc1cc(C2CCN(C(=O)[C@@H]3CN(C(C)(C)C)C[C@H]3c3ccc(F)cc3F)CC2)n(-c2cc(F)ccc2Cl)n1 | 8.6 nM | – | – | – | – | – | – | – | – | – | – | – | –
Cc1nc(C2CCN(C(=O)[C@@H]3CNC[C@H]3c3ccc(F)cc3F)CC2)n(-c2ccc(Cl)cc2)n1 | 194 nM | 0.12 | 0.07 | 53% | 82% | – | – | – | – | – | – | – | –
Cc1nc(C2CCN(C(=O)[C@@H]3CNC[C@H]3c3ccc(F)cc3F)CC2)n(-c2ccc(Cl)c(Cl)c2)n1 | 49 nM | – | – | 59% | 58% | – | – | – | – | – | – | – | –
Cc1nc(C2CCN(C(=O)[C@@H]3CNC[C@H]3c3ccc(F)cc3F)CC2)n(-c2cc(Cl)ccc2Cl)n1 | 30 nM | – | – | 58% | 56% | – | – | – | – | – | – | – | –
Cc1nc(C2CCN(C(=O)[C@@H]3CNC[C@H]3c3ccc(F)cc3F)CC2)n(-c2ccc(F)c(Cl)c2)n1 | 32 nM | – | – | 49% | 57% | – | – | – | – | – | – | – | –
Cc1cc(C2CCN(C(=O)[C@@H]3CNC[C@H]3c3ccc(F)cc3F)CC2)n(-c2ccc(Cl)c(Cl)c2)n1 | 15 nM | – | – | – | – | – | – | – | – | – | 19.6 nM | 55.7 nM | 164 nM
Cc1cc(C2CCN(C(=O)[C@@H]3CNC[C@H]3c3ccc(F)cc3F)CC2)n(-c2cc(Cl)ccc2Cl)n1 | 4.4 nM | 0.12 | 0.05 | – | – | 173 mL/min/kg | 19 L/kg | 1.4 h | 0.04 µM·kg·h/mg | 23% | 4.2 nM | 8.9 nM | 23 nM
Cc1cc(C2CCN(C(=O)[C@@H]3CNC[C@H]3c3ccc(F)cc3F)CC2)n(-c2ccc(F)c(Cl)c2)n1 | 8 nM | – | – | – | – | – | – | – | – | – | 8.3 nM | 19.9 nM | 54.5 nM
O=C([C@@H]1CNC[C@H]1c1ccc(F)cc1F)N1CCC(c2ccnn2-c2ccc(F)c(Cl)c2)CC1 | 3.7 nM | 0.12 | 0.1 | 44% | 59% | 60 mL/min/kg | 8 L/kg | 1.6 h | 0.16 µM·kg·h/mg | 27% | 2.9 nM | 7.7 nM | 21.9 nM
Cc1nc(C2CCN(C(=O)[C@H]3CN(C(C)(C)C)C[C@@H]3c3ccc(F)cc3F)CC2)n(-c2ccc(Cl)c(C)c2)n1 | 11 nM | 0.1 | 0.19 | 29% | 6% | 127 mL/min/kg | 20 L/kg | 2.1 h | 0.03 µM·kg·h/mg | 13% | 3 nM | 6 nM | 15 nM
Cc1cc(-n2nc(C3CCN(C(=O)[C@@H]4CN(C(C)(C)C)C[C@H]4c4ccc(F)cc4F)CC3)nc2C)ccc1Cl | 495 nM | 0.11 | 0.07 | 6% | 36% | 111 mL/min/kg | 14 L/kg | 1.7 h | 0.05 µM·kg·h/mg | 18% | – | – | –
Cc1nc(C2CCN(C(=O)[C@@H]3CN(C(C)(C)C)C[C@H]3c3ccc(F)cc3F)CC2)n(-c2ccc(Cl)cc2)n1 | 26 nM | 0.25 | 0.49 | 35% | 46% | 96 mL/min/kg | 14 L/kg | 1.9 h | 0.16 µM·kg·h/mg | 48% | – | – | –
